Reference: ChEMBL document CHEMBL1201862, “PubChem BioAssay data set” (2004)
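Compound exposure: 48 hours, 5 concentrations, 96-well plates. GI50 marks 50% less growth.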 Calls of active or inactive are those of the source. Cut-off read from the data, not from the text of the source: active = GI50 up to about 1.1 µM and inactive = higher.

What was measured:
Assay in all cases: NCI tumour cell line growth inhibition, 48 h
[1] = test system: UACC-62
[2] = test system: A549
[3] = test system: SNB-19
[4] = test system: SK-MEL-28
[5] = test system: NCI-H522
[6] = test system: Malme-3M
[7] = test system: 786-0
[8] = test system: SK-MEL-2
[9] = test system: NCI-H23
[10] = test system: LOX IMVI
[11] = test system: MCF7
[12] = test system: Hs-578T
[13] = test system: OVCAR-5
[14] = test system: MDA-MB-435
[15] = test system: NCI-H460
[16] = test system: HCT-116
[17] = test system: IGROV-1
[18] = test system: SR
[19] = test system: K562
[20] = test system: RPMI-8226
[21] = test system: T47D
[22] = test system: SF-539
[23] = test system: OVCAR-8
[24] = test system: TK-10
[25] = test system: SK-OV-3
[26] = test system: HOP-62
[27] = test system: ACHN
[28] = test system: UO-31
[29] = test system: HT-29
[30] = test system: OVCAR-3
[31] = test system: SF-268
[32] = test system: M14
[33] = test system: MDA-N
[34] = test system: SK-MEL-5
[35] = test system: EKVX
[36] = test system: HCT-15
[37] = test system: SF-295
[38] = test system: HCC 2998
[39] = test system: MOLT-4
[40] = test system: HOP-92
[41] = test system: SNB-75
[42] = test system: NCI/ADR-RES
[43] = test system: SW-620
[44] = test system: MDA-MB-231
[45] = test system: UACC-257
[46] = test system: A498
[47] = test system: CCRF-CEM
[48] = test system: COLO 205
[49] = test system: CAKI-1
[50] = test system: KM12
[51] = test system: DU-145
[52] = test system: HL-60
[53] = test system: BT-549
[54] = test system: PC-3
[55] = test system: SN12C
[56] = test system: RXF 393
[57] = test system: U-251
[58] = test system: NCI-H226
[59] = test system: OVCAR-4

CO[C@]12S[C@@H]3CCCC[C@@]31C(C)(C)C(=O)N2c1ccccc1
GI50 [1]: 49.8 µM (inactive)
GI50 [2]: 67.3 µM (inactive)
GI50 [3]: > 100 µM (inactive)
GI50 [4]: 75.5 µM (inactive)
GI50 [5]: 27.6 µM (inactive)
GI50 [6]: > 100 µM (inactive)
GI50 [7]: 43.2 µM (inactive)
GI50 [8]: 26.8 µM (inactive)
GI50 [9]: 28.8 µM (inactive)
GI50 [10]: 32.6 µM (inactive)
GI50 [11]: 27.4 µM (inactive)
GI50 [12]: 75 µM (inactive)
GI50 [13]: > 100 µM (inactive)
GI50 [14]: 33.7 µM (inactive)
GI50 [15]: 33 µM (inactive)
GI50 [16]: 33.2 µM (inactive)
GI50 [17]: 46.2 µM (inactive)
GI50 [18]: 28.5 µM (inactive)
GI50 [19]: 29.7 µM (inactive)
GI50 [20]: 24.7 µM (inactive)
GI50 [21]: 30.7 µM (inactive)
GI50 [22]: 4.11 µM (inactive)
GI50 [23]: 30.1 µM (inactive)
GI50 [24]: 55.5 µM (inactive)
GI50 [25]: 25.8 µM (inactive)
GI50 [26]: 16.7 µM (inactive)
GI50 [27]: 37.4 µM (inactive)
GI50 [28]: 91.4 µM (inactive)
GI50 [29]: 47.4 µM (inactive)
GI50 [30]: 15.2 µM (inactive)
GI50 [31]: 37.9 µM (inactive)
GI50 [32]: 70 µM (inactive)
GI50 [33]: 42.2 µM (inactive)
GI50 [34]: 20.5 µM (inactive)
GI50 [35]: 55.7 µM (inactive)
GI50 [36]: 29.1 µM
GI50 [37]: 16 µM (inactive)
GI50 [38]: 51.2 µM (inactive)
GI50 [39]: 21.7 µM (inactive)
GI50 [40]: 38 µM (inactive)
GI50 [41]: 51.5 µM (inactive)
GI50 [42]: 23 µM (inactive)
GI50 [43]: 30.4 µM (inactive)
GI50 [44]: 42.2 µM (inactive)
GI50 [45]: 33.8 µM (inactive)
GI50 [46]: > 100 µM (inactive)
GI50 [47]: 13.5 µM (inactive)
GI50 [48]: 14.4 µM (inactive)
GI50 [49]: 48.5 µM (inactive)
GI50 [50]: 36.7 µM (inactive)
GI50 [51]: 55.3 µM (inactive)
GI50 [52]: 14.6 µM (inactive)
GI50 [53]: 27.4 µM (inactive)
GI50 [54]: 23.6 µM (inactive)
GI50 [55]: 18.4 µM (inactive)
GI50 [56]: 49.5 µM (inactive)
GI50 [57]: 26.6 µM (inactive)

CC(=O)OCC1OC(n2c(-c3ccc(C)cc3)cc(-c3ccccc3)c(C#N)c2=S)C(OC(C)=O)C(OC(C)=O)C1OC(C)=O (stereo not drawn)
GI50 [1]: > 100 µM (inactive)
GI50 [2]: > 100 µM (inactive)
GI50 [3]: > 100 µM (inactive)
GI50 [4]: > 100 µM (inactive)
GI50 [5]: > 100 µM (inactive)
GI50 [6]: > 100 µM (inactive)
GI50 [7]: > 100 µM (inactive)
GI50 [9]: > 100 µM (inactive)
GI50 [10]: > 100 µM (inactive)
GI50 [11]: > 100 µM (inactive)
GI50 [12]: 65.2 µM (inactive)
GI50 [13]: > 100 µM (inactive)
GI50 [14]: > 100 µM (inactive)
GI50 [15]: > 100 µM (inactive)
GI50 [16]: > 100 µM (inactive)
GI50 [17]: > 100 µM (inactive)
GI50 [18]: > 100 µM (inactive)
GI50 [58]: > 100 µM (inactive)
GI50 [19]: > 100 µM (inactive)
GI50 [20]: > 100 µM (inactive)
GI50 [21]: > 100 µM (inactive)
GI50 [22]: > 100 µM (inactive)
GI50 [23]: > 100 µM (inactive)
GI50 [24]: > 100 µM (inactive)
GI50 [25]: > 100 µM (inactive)
GI50 [26]: > 100 µM (inactive)
GI50 [27]: > 100 µM (inactive)
GI50 [28]: > 100 µM (inactive)
GI50 [29]: > 100 µM (inactive)
GI50 [30]: > 100 µM (inactive)
GI50 [31]: > 100 µM (inactive)
GI50 [32]: > 100 µM (inactive)
GI50 [33]: > 100 µM (inactive)
GI50 [34]: 37.8 µM (inactive)
GI50 [35]: > 100 µM (inactive)
GI50 [36]: > 100 µM
GI50 [37]: > 100 µM (inactive)
GI50 [38]: > 100 µM (inactive)
GI50 [39]: > 100 µM (inactive)
GI50 [40]: > 100 µM (inactive)
GI50 [41]: 32.7 µM (inactive)
GI50 [42]: > 100 µM (inactive)
GI50 [59]: 81.1 µM (inactive)
GI50 [43]: > 100 µM (inactive)
GI50 [44]: > 100 µM (inactive)
GI50 [46]: 31 µM (inactive)
GI50 [48]: > 100 µM (inactive)
GI50 [49]: > 100 µM (inactive)
GI50 [50]: > 100 µM (inactive)
GI50 [51]: > 100 µM (inactive)
GI50 [52]: > 100 µM (inactive)
GI50 [53]: > 100 µM (inactive)
GI50 [54]: > 100 µM (inactive)
GI50 [55]: > 100 µM (inactive)
GI50 [56]: > 100 µM (inactive)
GI50 [57]: > 100 µM (inactive)
